Converted amounts (≈) assume the structure as drawn. Read-outs that look alike come from different tables or passages of the source.
Assays:
[1] = tested on: E. coli KA797 cells carrying pUK21 with CTX-M-14 WT (Tat); assay: microbe, parasite or virus in culture; assay type: cell-based; settings: Escherichia coli, antibiotic alone
[2] = tested on: E. coli KA797 cells carrying CTX-M-14 position 105 library; assay type: cell-based; settings: CTX-M-14 WT (Tyr 105)
[3] = tested on: E. coli KA797 cells carrying BlaC position 105 library; assay type: cell-based, Escherichia coli; settings: for Fi AVG (average fitness): relative to WT Ile; for Fi AVG (average fitness) / Fi MEM AVG: average of replicates; for Fi MEM AVG / Fi MEM 1 / Fi MEM 2 / Fi MEM 3 / Significance (Fi MEM AVG): meropenem; for Fi MEM 1: replicate 1; for Fi MEM 2: replicate 2; for Fi MEM 3: replicate 3

Structure (SMILES): C[C@@H](O)[C@H]1C(=O)N2C(C(=O)O)=C(S[C@@H]3CN[C@H](C(=O)N(C)C)C3)[C@H](C)[C@H]12 [meropenem]
- MIC [1]: 0.1 µg/mL (≈ 0.261 µM)
- WT abs Fi 1 (absolute fitness of wild type, Replicate 1) [2]: -0.645
- WT abs Fi 2 (absolute fitness of wild type, Replicate 2) [2]: -0.807
- Fi AVG (average fitness) ([3]; AA 105 Ala (BlaC I105A)): -0.028
- Fi MEM AVG ([3]; AA 105 Ala): -0.183
- Fi MEM 1 ([3]; AA 105 Ala): -0.183
- Fi MEM AVG ([3]; AA 105 Arg): -0.097
- Fi MEM 1 ([3]; AA 105 Arg): 0.189
- Fi MEM 2 ([3]; AA 105 Arg): 0.262
- Fi MEM 3 ([3]; AA 105 Arg): -0.743
- Fi AVG (average fitness) ([3]; AA 105 Asn (BlaC I105N)): -0.021
- Fi MEM AVG ([3]; AA 105 Asn): -0.526
- Fi MEM 1 ([3]; AA 105 Asn): 0.793
- Fi MEM 2 ([3]; AA 105 Asn): -1.824
- Fi MEM 3 ([3]; AA 105 Asn): -0.547
- Fi AVG (average fitness) ([3]; AA 105 Asp (BlaC I105D)): -0.059
- Significance (Fi MEM AVG) ([3]; AA 105 Asp): -
- Fi MEM AVG ([3]; AA 105 Asp): -1.181
- Fi MEM 1 ([3]; AA 105 Asp): -1.339
- Fi MEM 2 ([3]; AA 105 Asp): -1.644
- Fi MEM 3 ([3]; AA 105 Asp): -0.561
- Fi MEM AVG ([3]; AA 105 Cys): -0.623
- Fi MEM 1 ([3]; AA 105 Cys): -1.368
- Fi MEM 2 ([3]; AA 105 Cys): 1.109
- Fi MEM 3 ([3]; AA 105 Cys): -1.611
- Fi AVG (average fitness) ([3]; AA 105 Gln (BlaC I105Q)): -0.020
- Fi MEM AVG ([3]; AA 105 Gln): -1.909
- Fi MEM 2 ([3]; AA 105 Gln): -1.909
- Fi AVG (average fitness) ([3]; AA 105 Glu (BlaC I105E)): -0.058
- Significance (Fi MEM AVG) ([3]; AA 105 Glu): -
- Fi MEM AVG ([3]; AA 105 Glu): -1.296
- Fi MEM 1 ([3]; AA 105 Glu): -1.915
- Fi MEM 2 ([3]; AA 105 Glu): 0.069
- Fi MEM 3 ([3]; AA 105 Glu): -2.043
- Fi AVG (average fitness) ([3]; AA 105 Gly (BlaC I105G)): -0.019
- Significance (Fi MEM AVG) ([3]; AA 105 Gly): -
- Fi MEM AVG ([3]; AA 105 Gly): -1.447
- Fi MEM 1 ([3]; AA 105 Gly): -0.905
- Fi MEM 2 ([3]; AA 105 Gly): -2.832
- Fi MEM 3 ([3]; AA 105 Gly): -0.603
- Fi MEM AVG ([3]; AA 105 His): 0.129
- Fi MEM 1 ([3]; AA 105 His): 1.220
- Fi MEM 2 ([3]; AA 105 His): -0.828
- Fi MEM 3 ([3]; AA 105 His): -0.00649
- Fi MEM AVG ([3]; AA 105 Ile (WT)): 0.000
- Fi MEM 1 ([3]; AA 105 Ile (WT)): 0.000
- Fi MEM 2 ([3]; AA 105 Ile (WT)): 0.000
- Fi MEM 3 ([3]; AA 105 Ile (WT)): 0.000
- Significance (Fi MEM AVG) ([3]; AA 105 Leu): -
- Fi MEM AVG ([3]; AA 105 Leu): -1.047
- Fi MEM 1 ([3]; AA 105 Leu): -0.470
- Fi MEM 2 ([3]; AA 105 Leu): -1.669
- Fi MEM 3 ([3]; AA 105 Leu): -1.001
- Significance (Fi MEM AVG) ([3]; AA 105 Lys): -
- Fi MEM AVG ([3]; AA 105 Lys): -2.317
- Fi MEM 1 ([3]; AA 105 Lys): -1.936
- Fi MEM 2 ([3]; AA 105 Lys): -2.755
- Fi MEM 3 ([3]; AA 105 Lys): -2.261
- Fi MEM AVG ([3]; AA 105 Met): -0.579
- Fi MEM 1 ([3]; AA 105 Met): -0.023
- Fi MEM 2 ([3]; AA 105 Met): -0.087
- Fi MEM 3 ([3]; AA 105 Met): -1.628
- Significance (Fi MEM AVG) ([3]; AA 105 Phe): -
- Fi MEM AVG ([3]; AA 105 Phe): -1.123
- Fi MEM 1 ([3]; AA 105 Phe): -0.896
- Fi MEM 2 ([3]; AA 105 Phe): -1.005
- Fi MEM 3 ([3]; AA 105 Phe): -1.468
- Fi AVG (average fitness) ([3]; AA 105 Pro (BlaC I105P)): -0.044
- Significance (Fi MEM AVG) ([3]; AA 105 Pro): -
- Fi MEM AVG ([3]; AA 105 Pro): -1.653
- Fi MEM 1 ([3]; AA 105 Pro): -2.435
- Fi MEM 2 ([3]; AA 105 Pro): 0.050
- Fi MEM 3 ([3]; AA 105 Pro): -2.575
- Significance (Fi MEM AVG) ([3]; AA 105 Ser): -
